# Experimental data from US10696615B2, “Prenylated hydroxystilbenes” (The University of Sydney, priority 2011, dated 2020).
# What was measured:
# Assay type in all cases: cell-based, human
# [1] = tested on: UACC-257; assay: NCI in vitro cancer screen, Melanoma; details: UACC-257
# [2] = tested on: MDA-MB-468; assay: NCI in vitro cancer screen, Breast Cancer; details: MDA-MB-468
# [3] = tested on: SR; assay: NCI in vitro cancer screen, Leukemia
# [4] = tested on: HT29; assay: NCI in vitro cancer screen, Colon Cancer; details: HT29
# [5] = tested on: K-562; assay: NCI in vitro cancer screen, Leukemia; details: K-562
# [6] = tested on: OVCAR-4; assay: NCI in vitro cancer screen, Ovarian Cancer; details: OVCAR-4
# [7] = tested on: T-47D; assay: NCI in vitro cancer screen, Breast Cancer
# [8] = tested on: HOP-92; assay: NCI in vitro cancer screen, Non-Small Cell Lung Cancer; details: HOP-92
# [9] = tested on: OVCAR-8; assay: NCI in vitro cancer screen, Ovarian Cancer; details: OVCAR-8
# [10] = tested on: UACC-62; assay: NCI in vitro cancer screen, Melanoma; details: UACC-62
# [11] = tested on: NCI-H23; assay: NCI in vitro cancer screen, Non-Small Cell Lung Cancer; details: NCI-H23
# [12] = tested on: ADR-RES (NCI/ADR-RES); assay: NCI in vitro cancer screen, Ovarian Cancer
# [13] = tested on: SK-MEL-28; assay: NCI in vitro cancer screen, Melanoma; details: SK-MEL-28
# [14] = tested on: SK-OV-3; assay: NCI in vitro cancer screen, Ovarian Cancer; details: SK-OV-3
# [15] = tested on: M14; assay: NCI in vitro cancer screen, Melanoma; details: M14
# [16] = tested on: OVCAR-5; assay: NCI in vitro cancer screen, Ovarian Cancer; details: OVCAR-5
# [17] = tested on: HCT-116; assay: NCI in vitro cancer screen, Colon Cancer; details: HCT-116
# [18] = tested on: NCI-H460; assay: NCI in vitro cancer screen, Non-Small Cell Lung Cancer; details: NCI-H460
# [19] = tested on: SF-295; assay: NCI in vitro cancer screen, CNS Cancer; details: SF-295
# [20] = tested on: DU-145; assay: NCI in vitro cancer screen, Prostate Cancer; details: DU-145
# [21] = tested on: RPMI-8226; assay: NCI in vitro cancer screen, Leukemia; details: RPMI-8226
# [22] = tested on: HOP-62; assay: NCI in vitro cancer screen, Non-Small Cell Lung Cancer; details: HOP-62
# [23] = tested on: UO-31; assay: NCI in vitro cancer screen, Renal Cancer; details: UO-31
# [24] = tested on: RXF-393; assay: NCI in vitro cancer screen, Renal Cancer; details: RXF-393
# [25] = tested on: MOLT-4; assay: NCI in vitro cancer screen, Leukemia; details: MOLT-4
# [26] = tested on: 786-0; assay: NCI in vitro cancer screen, Renal Cancer; details: 786-0
# [27] = tested on: SNB-19; assay: NCI in vitro cancer screen, CNS Cancer; details: SNB-19
# [28] = tested on: SK-MEL-5; assay: NCI in vitro cancer screen, Melanoma; details: SK-MEL-5
# [29] = tested on: HL-60 (TB); assay: NCI in vitro cancer screen, Leukemia; details: HL-60 (TB)
# [30] = tested on: LOX IMVI; assay: NCI in vitro cancer screen, Melanoma
# [31] = tested on: COLO 205; assay: NCI in vitro cancer screen, Colon Cancer; details: COLO 205
# [32] = Homo sapiens, read-out: LC50 (the source's name)
smiles,measurement,setting,value
"CC(C)=CCOc1cc(O)cc(/C=C/c2ccc(O)c(O)c2)c1 [USYDS4, (E)-3-(3-methyl-2-butenyloxy)-3′,4′,5-trihydroxystilbene]",GI50,[1]; Homo sapiens,5.44 µM
same,CC50,[1]; [32],48.6 µM
same,TGI,[1],19.4 µM
same,GI50,[2]; Homo sapiens,2.53 µM
same,CC50,[2]; [32],55.1 µM
same,TGI,[2],9.51 µM
same,TGI,[3],>100 µM
same,GI50,[3]; Homo sapiens,0.95 µM
same,CC50,[3]; [32],> 100 µM
same,TGI,[4],32.5 µM
same,GI50,"[4]; Homo sapiens, HT-29",16.3 µM
same,CC50,"[4]; Homo sapiens, HT-29, read-out: LC50 (the source's name)",64.7 µM
same,GI50,"[5]; Homo sapiens, K562",2.35 µM
same,CC50,"[5]; Homo sapiens, K562, read-out: LC50 (the source's name)",> 100 µM
same,TGI,[5],>100 µM
same,GI50,[6]; Homo sapiens,3.98 µM
same,CC50,[6]; [32],> 100 µM
same,TGI,[6],50.4 µM
same,TGI,[7],6.93 µM
same,GI50,"[7]; Homo sapiens, T47D",2.13 µM
same,CC50,"[7]; Homo sapiens, T47D, read-out: LC50 (the source's name)",> 100 µM
same,TGI,[8],13.6 µM
same,GI50,[8]; Homo sapiens,1.92 µM
same,CC50,[8]; [32],62.3 µM
same,GI50,[9]; Homo sapiens,4.94 µM
same,CC50,[9]; [32],> 100 µM
same,TGI,[9],31.1 µM
same,GI50,[10]; Homo sapiens,4.53 µM
same,CC50,[10]; [32],44.4 µM
same,TGI,[10],16.8 µM
same,GI50,[11]; Homo sapiens,3.42 µM
same,LC50,[11]; Homo sapiens,81.9 µM
same,TGI,[11],20.8 µM
same,TGI,[12]; ADR-RES,48.3 µM
same,GI50,"[12]; Homo sapiens, NCI/ADR-RES",1.11 µM
same,CC50,"[12]; Homo sapiens, NCI/ADR-RES, read-out: LC50 (the source's name)",> 100 µM
same,GI50,[13]; Homo sapiens,9.18 µM
same,LC50,[13]; Homo sapiens,77.9 µM
same,TGI,[13],27.6 µM
same,GI50,[14]; Homo sapiens,8.91 µM
same,CC50,[14]; [32],> 100 µM
same,TGI,[14],57.0 µM
same,GI50,[15]; Homo sapiens,0.91 µM
same,CC50,[15]; [32],46.3 µM
same,TGI,[15],15.4 µM
same,GI50,[16]; Homo sapiens,15.9 µM
same,CC50,[16]; [32],> 100 µM
same,TGI,[16],51.4 µM
same,TGI,[17],16.0 µM
same,GI50,[17]; Homo sapiens,4.55 µM
same,LC50 (concentration killing 50% of cells),[17]; Homo sapiens,40.6 µM
same,GI50,[18]; Homo sapiens,3.65 µM
same,CC50,[18]; [32],> 100 µM
same,TGI,[18],20.3 µM
same,GI50,[19]; Homo sapiens,7.29 µM
same,CC50,[19]; [32],70.9 µM
same,TGI,[19],24.3 µM
same,TGI,[20],44.6 µM
same,GI50,[20]; Homo sapiens,6.37 µM
same,CC50,[20]; [32],> 100 µM
same,GI50,[21]; Homo sapiens,2.35 µM
same,CC50,[21]; [32],> 100 µM
same,TGI,[21],25.4 µM
same,TGI,[22],26.3 µM
same,GI50,[22]; Homo sapiens,6.49 µM
same,CC50,[22]; [32],83.4 µM
same,GI50,[23]; Homo sapiens,3.31 µM
same,CC50,[23]; [32],66.4 µM
same,TGI,[23],20.7 µM
same,GI50,[24]; Homo sapiens,2.17 µM
same,CC50,[24]; [32],46 µM
same,TGI,[24],15.3 µM
same,GI50,[25]; Homo sapiens,4.31 µM
same,CC50,[25]; [32],> 100 µM
same,TGI,[25],21.6 µM
same,TGI,[26],20.5 µM
same,GI50,[26]; Homo sapiens,4.41 µM
same,LC50 (50% net cell kill),[26]; Homo sapiens,> 100 µM
same,GI50,[27]; Homo sapiens,10.5 µM
same,CC50,[27]; [32],63.8 µM
same,TGI,[27],25.8 µM
same,GI50,[28]; Homo sapiens,1.42 µM
same,CC50,[28]; [32],30 µM
same,TGI,[28],8.35 µM
same,TGI,[29],6.04 µM
same,GI50,[29]; Homo sapiens,2.59 µM
same,CC50,[29]; [32],> 100 µM
same,TGI,[30],19.3 µM
same,GI50,[30]; Homo sapiens,3.82 µM
same,CC50,[30]; [32],58.5 µM
same,TGI,[31],23.0 µM
same,GI50,[31]; Homo sapiens,9.72 µM
same,CC50,[31]; [32],53.5 µM
